Tests used:
Degradation in soil = format: physicochemical; conditions: neutral sandy loam soil LUFA 5M; incubated at 27° C. and 40% of max. water-holding capacity over 90 days; DT50 referring to 20° C.; SFO or DFOP kinetics
Description: Degradation of the compound (I-B-131) and compound (I-B-33) in soil was compared. The two compounds were incubated in neutral sandy loam soil (LUFA 5M) at 27° C. and 40% of the max. water-holding capacity over a period of 90 days. Soil extraction was carried out with acetonitrile followed by acetonitrile/water (1/1) and the extracted test compounds were quantified by HPLC-MS. The following DT50 values (referring to 20° C.) were obtained assuming single first order (SFO) or double first order in parallel (DFOP) kinetics: […]

[1] = system: green peach aphid (Myzus persicae); assay: Test 1: control of green peach aphid through systemic means (artificial diet, 96-well microtiter plates); format: in vivo; conditions: 3 days
Description: If present, synergism can be described as an interaction where the combined effect of two or more compounds is greater than the sum of the individual effects of each of the compounds. The presence of a synergistic effect in terms of percent control, between two mixing partners (X and Y) can be calculated using the Colby equation (Colby, S. R., 1967, Calculating Synergistic and Antagonistic Responses in Herbicide Combinations, Weeds, 15, 20-22):
When the observed combined control effect is greater than the expected combined control effect (E), then the combined effect is synergistic.
For evaluating control of green peach aphid (Myzus persicae) through systemic means the test unit consisted of 96-well-microtiter plates containing liquid artificial diet under an artificial membrane.
The compounds or mixtures were formulated using a solution containing 75% water and 25% DMSO. Different concentrations of formulated compounds or mixtures were pipetted into the aphid diet, using a custom built pipetter, at two replications.
For experimental mixtures in these tests identical volumes of both mixing partners at the desired concentrations respectively, were mixed together.
After application, 5-8 adult aphids were placed on the artificial membrane inside the microtiter plate wells. The aphids were then allowed to suck on the treated aphid diet and incubated at […], 50±5% RH for 3 days. Aphid mortality and fecundity was then visually assessed. For the mixture tested the results are listed in the tables for Example E2-1 and E2-2.

[2] = system: Neonicotinoid resistant strain of the brown planthopper (Nilaparvata lugens); assay: B2 b) Nilaparvata lugens larvicide, feeding/contact activity, preventive on rice seedlings; Resistance Factor RF80; format: in vivo; conditions: IND3 strain (neonicotinoid resistant) vs standard screening strain of Nilaparvata lugens; lowest concentration giving greater than 80% mortality
Description: (§1) The level of resistance and therefore the impact on the performance of the insecticide can be measured by the use of a ‘Resistance Factor’. The resistance factor can be calculated by dividing the concentration of an insecticide that provides a set level of mortality (i.e. 80 percent) for the ‘resistant’ strain with the concentration of the same insecticide that provides the same level of mortality for the ‘susceptible’ insect of the same species and life-stage. Although there are no set rules, a low value (1-10) indicates no cross-resistance and only natural levels of variation and a high value (50+) provides strong evidence of cross-resistance.
b) Neonicotinoid Resistant Strain of the Brown Planthopper (Nilaparvata lugens)
Nilaparvata lugens strains utilised: • Standard screening strain of Nilaparvata lugens (Neonicotinoid susceptible) • IND3 strain of Nilaparvata lugens (Neonicotinoid resistant) Bioassay Method: Nilaparvata lugens: Larvicide, Feeding/Contact Activity, Preventive
Rice seedlings are treated with the diluted test solutions in a turn table spray chamber. After drying, they are infested with 20 N3 nymphs. 6 and 12 days after the treatment samples are checked for mortality, growth regulation, and effects on the Fi generation.
The Resistance Factor (RF80) of different compounds is tested. […]

[3] = system: Neonicotinoid and pyrethroid resistant strain of the green peach aphid (Myzus persicae); assay: B2 a) Myzus persicae mixed population, contact activity, curative on pea seedlings; Resistance Factor RF80; format: in vivo; conditions: FRC-P strain (neonicotinoid resistant) vs standard screening strain of Myzus persicae; lowest concentration giving greater than 80% mortality, 6 days after treatment
Description: B2: Determination of the cross-resistance status of compounds I when applied against agronomically important pest species resistant to one or more commercially available class of insecticide.
as §1
a) Neonicotinoid and Pyrethroid Resistant Strain of the Green Peach Aphid (Myzus persicae)
Myzus persicae strains utilised: • Standard screening strain of Myzus persicae (Neonicotinoid susceptible) • FRC-P strain of Myzus persicae (Neonicotinoid resistant) Bioassay Method
Myzus persicae: mixed population, contact activity, curative on pea seedlings
Pea seedlings, infested with an aphid population of mixed ages, are treated with the test solutions in a spray chamber. 6 days after treatment, samples are checked for mortality. […]

[4] = system: ALM07 strain (neonicotinoid and pyrethroid resistant), adult whitefly
Description: Bioassay Method Bemisia tabaci Residual Activity, Preventive Egg Lay

[5] = system: Diamide-resistant diamond back moth (Plutella xylostella), Cebu strain; conditions: third instar larvae, mortality 3 days after inoculation; comparing LC50s and LC90s

Cc1cc(Cl)cc(C(N)=O)c1NC(=O)c1cc(C(F)(F)F)nn1-c1ncccc1Cl [I-B-131, N-(2-carbamoyl-4-chloro-6-methyl-phenyl)-2-(3-chloro-2-pyridyl)-5-(trifluoromethyl)pyrazole-3-carboxamide]
DT50 (Degradation in soil): 41 days

CC(NC(=O)c1cc(Cl)cc(Br)c1NC(=O)c1cc(Br)nn1-c1ncccc1Cl)C1CC1 (stereo not shown) [I-A-1]
Average Control % ([1]; Example E2-1, 0.4 ppm): 0% | Average Control % ([1]; Example E2-2, 0.8 ppm): 0%

CN1COCN(Cc2cnc(Cl)s2)/C1=N\[N+](=O)[O-] [thiamethoxam]
Resistance Factor (RF80) [2]: > 64 | Resistance Factor (RF80) [3]: > 250 | RF in residual mortality bioassay of adult whitefly [4]: > 250

CC1=NNC(=O)N(/N=C/c2cccnc2)C1 [Pymetrozine, pymetrozine]
Average Control % ([1]; Example E2-1, 80 ppm): 0%

CNC(=O)c1cc(Cl)cc(C)c1NC(=O)c1cc(Br)nn1-c1ncccc1Cl [I-B-33, chlorantraniliprole]
Average Control % ([1]; Example E2-2, 0.4 ppm): 0% | DT50 (Degradation in soil): 89 days

Cc1cc(C(F)(C(F)(F)F)C(F)(F)F)ccc1NC(=O)c1cccc(I)c1C(=O)NC(C)(C)CS(C)(=O)=O [flubendiamide]
Efficacy against field collected Cebu strain of Plutella xylostella [5]: only weak efficacies
